# pIC50: −log10 of the molar value.
# Biological target: GABA-A receptor; anion channel
# Assay: In vitro displacement of [3H]flunitrazepam from GABA-A central benzodiazepine receptor of rat cerebral cortex membranes
# Type: cell membranes, Membrane
row,Structure (SMILES),pIC50
1,COC(=O)c1cc2c(cn1)[nH]c1ccccc12 [BETA-CCM],8.70
2,O=C1OC(O)c2c1[nH]cc1nc3ccccc3c2-1 (stereo not drawn),7.33
3,CCOC(=O)CN1C(=O)c2[nH]cc3nc4ccccc4c-3c2C1O (stereo not drawn),7.15
4,O=C1OC(=O)c2c1[nH]cc1nc3ccccc3c2-1,6.82
5,CC1OC(=O)c2[nH]cc3nc4ccccc4c-3c21 (stereo not drawn),7.70

# The next lines start with the values.
row,pIC50,Structure (SMILES)
1,9.70,O=C1OC(CO)c2c1[nH]cc1nc3ccccc3c2-1 (stereo not drawn)
2,7.70,CCOC1OC(=O)c2[nH]cc3nc4ccccc4c-3c21 (stereo not drawn)
3,7.92,COC1OC(=O)c2[nH]cc3nc4ccccc4c-3c21 (stereo not drawn)
